Reference: patent US9085570B2, “Substituted benzamides and their uses” (The Board of Trustees of the Leland Stanford Junior …, priority 2010, dated 2015)

Tests used:
[1] = test system: RCC4; experiment: XTT cell viability assay in RCC4 cells (VHL-deficient renal carcinoma); type: cell-based; conditions: Homo sapiens, 96 h, four days drug exposure
Procedure: (§1) Cell Culture. RCC4 parental and RCC4 with VHL-reintroduced (RCC4/VHL), SN12C and SN12C-CSCG-VHL shRNA were maintained in DMEM supplemented with 10% FCS.
(§2) Cell Viability Assays. For 2,3-bis[2-methoxy-4-nitro-5-sulfophenyl]-2H-tetrazolium-5-carboxanilide (XTT) assays, five thousand cells were plated in 96-well plates. The next day, vehicle (DMSO) or drug was added by serial dilution. Four days later, media were aspirated, XTT solution (0.3 mg/ml of XTT (Sigma), […] N-methyl dibenxopyrazine methyl sulfate (Simga) in phenol red-free media) was added, and the plates were incubated at 37° C. for 1-2 hours. Metabolism of XTT was quantified by measuring the absorbance at 450 nm IC50s were calculated using linear interpolation. For clonogenic survival assays, three hundred cells were plated per 60 mm tissue culture dish. The cells were allowed to attach overnight and then treated with vehicle or drug for 14 days. Colonies were fixed and stained with crystal violet (0.1% crystal violet in 95% ethanol). All conditions were measured in triplicate and each experiment was done in duplicate or triplicate. To determine necrosis, cells were treated with drug for a given time point. Media and cells were collected, centrifugated, and resuspended in 0.4% trypan blue (Invitrogen). Live and dead cells were counted on a hematocytometer.
(§3) The designation A reflects an IC50 of <1 nM; B reflects an IC50 ranging from 1 to 20 nM; and C is an IC50 of >20 nM. The designation “a” reflects a ratio of RCC4/RCC-VHL+ranging from 1 to ≦10; “b” reflects from 10 to ≦100; “c” reflects a ratio of >100. Compounds I-29 have an IC50 value of ≦10 μM when tested in the above assay.

[2] = test system: RCC4 with VHL-reintroduced (RCC4/VHL); experiment: XTT cell viability assay in RCC4/VHL cells, selectivity ratio versus RCC4; type: cell-based; conditions: Ratio = IC50RCC4/VHL/IC50RCC4
Procedure: as §1, §2, §3

IC50 [1] [nM]	Compound	Ratio (IC50 RCC4 Proficient VHL)/ IC50 RCC4 Deficient VHL) [2]	Ratio [2]
> 20	Cc1oc(-c2ccc(C(=O)NCc3cccnc3)cc2)nc1CS(=O)(=O)[C@@H]1CC[C@H](N)C1 [Example 50, 4-[4-([[(1R,3S)-3-Aminocyclopentane]sulfonyl]methyl)-5-methyl-1,3-oxazol-2-yl]-N-(pyridin-3-ylmethyl)benzamide]	b (from 10 to ≦100)	–
< 1	Cc1oc(-c2ccc(C(=O)NCc3cccnc3)cc2)nc1CS(=O)(=O)[C@@H]1CC[C@H](N2CCCC2)C1 [Example 51, 4-[5-Methyl-4-([[(1R,3S)-3-(pyrrolidin-1-yl)cyclopentane]sulfonyl]methyl)-1,3-oxazol-2-yl]-N-(pyridin-3-ylmethyl)benzamide]	b (from 10 to ≦100)	–
< 1	Cc1oc(-c2ccc(C(=O)NCc3cccnc3)cc2)nc1CS(=O)(=O)[C@@H]1CC[C@H](N2CCCCC2)C1 [Example 52, 4-[5-Methyl-4-([[(1R,3S)-3-(piperidin-1-yl)cyclopentane]sulfonyl]methyl)-1,3-oxazol-2-yl]-N-(pyridin-3-ylmethyl)benzamide]	a (a ratio of RCC4/RCC-VHL+ranging from 1 to ≦10)	–
< 1	Cc1oc(-c2ccc(C(=O)NCc3cccnc3)cc2)nc1CS(=O)(=O)C1CCN(CC(C)C)CC1 [Example 53, 4-(5-methyl-4-[[1-(2-methylpropyl)piperidine-4-sulfonyl]methyl]-1,3-oxazol-2-yl)-N-(pyridin-3-ylmethyl)benzamide]	a (a ratio of RCC4/RCC-VHL+ranging from 1 to ≦10)	–
< 1	Cc1oc(-c2ccc(C(=O)NCc3cccnc3)cc2)nc1CS(=O)(=O)C1CCN(C2CCCC2)CC1 [Example 54, 4-[4-[(1-cyclopentylpiperidine-4-sulfonyl)methyl]-5-methyl-1,3-oxazol-2-yl]-N-(pyridin-3-ylmethyl)benzamide]	b (from 10 to ≦100)	–
> 20	O=C(Nc1cccnc1)c1ccc(CNS(=O)(=O)c2ccco2)cc1 [II-8, N-(3-Pyridinyl)-4-{[(2-furanylsulfonyl)amino]methyl}benzamide]	–	a (a ratio of RCC4/RCC-VHL+ranging from 1 to ≦10)

Compound	IC50 [1] [nM]	Ratio (IC50 RCC4 Proficient VHL)/ IC50 RCC4 Deficient VHL) [2]	Ratio [2]
Cc1oc(-c2ccc(C(=O)NCc3cccnc3)cc2)nc1CS(=O)(=O)C1CCN(C2CCCCC2)CC1 [Example 55, 4-[4-[(1-cyclohexylpiperidine-4-sulfonyl)methyl]-5-methyl-1,3-oxazol-2-yl]-N-(pyridin-3-ylmethyl)benzamide]	< 1	a (a ratio of RCC4/RCC-VHL+ranging from 1 to ≦10)	–
